Results on four compounds are retold here after patent US20090156509A1, “Tri-peptide Inhibitors of Serine Elastases” (Accuthera, Inc., priority 2007, published 2009).

Converted amounts (≈) assume the structure as drawn.

For orientation: Ki means the dissociation constant of the complex between target and ligand, obtained from inhibition or displacement. One may read the solubility as how much of the substance goes into solution per volume.

Series [1] is described as follows: Protein binding in dog plasma by equilibrium dialysis. The series is classed as in vitro ADME. Conditions: 10 μM, 6 hours at 37° C. How it is done:
Protein binding of test compounds in dog plasma was assessed by performing equilibrium dialysis with plasma containing test compound (10 μM) against 0.1 M PBS (pH 7.4). Following incubation (6 hours at 37° C.), the parent compound was measured in both plasma and buffer compartments by LC-MS and the percentage of compound bound to plasma proteins determined. […] Generally it is believed that only the unbound drug is available for pharmacological action.
(In general: In equilibrium dialysis free small molecules cross a membrane that holds back macromolecules.)

Series [2] has as its target T1, HNE (human neutrophil elastase) (Homo sapiens, UniProt P08246).
T1 construct: Enzymes PR3 and HNE (HLE) were purchased from Athens Research and Technology (Athens, Ga.) or Elastin Products (Owensville, Mich.); purchased Athens Research and Technology (Athens, Ga.) or Elastin Products (Owensville, Mich.)
T1 sequence (P08246 30-267): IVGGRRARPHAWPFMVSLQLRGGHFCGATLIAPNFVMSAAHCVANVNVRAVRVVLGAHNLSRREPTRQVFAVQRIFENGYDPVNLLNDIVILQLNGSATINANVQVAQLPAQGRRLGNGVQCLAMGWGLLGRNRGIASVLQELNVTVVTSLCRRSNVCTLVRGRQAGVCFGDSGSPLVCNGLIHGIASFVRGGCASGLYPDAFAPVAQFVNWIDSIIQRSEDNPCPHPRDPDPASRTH
The series can be described thus: HNE enzyme inhibition, kinetic Ki determination. The series is classed as biochemical. Particulars: for Ki: substrate MeO-Suc-Ala-Ala-Pro-Val-pNA, pH 7.6, read-out: Ki (NE). How it is done:
(§1) The assays for measurement of PR3 and HNE enzyme and inhibitory activity were performed generally as described by Coeschott et al., Proc. Nat. Acad. Sci. USA, 96: 6261-6266, (1999). Kinetic characterization was performed generally by the techniques of Wieczorek et al., Archives of Biochem. and BioPhys., 367: 193-201 (1999). Enzymes PR3 and HNE (HLE) were purchased from Athens Research and Technology (Athens, Ga.) or Elastin Products (Owensville, Mich.).
(§2) The substrate used for HNE was MeO-Suc-Ala-Ala-Pro-Val-pNA, in 0.05 M sodium phosphate/0.1 M NaCl, pH 7.6, containing 0.001% Triton X-100 and 5% DMSO. The substrate used for PR3 was Boc-Ala-Pro-Nva-4-chloro-SBzl in 0.05 M potassium phosphate/0.1 M KCl, pH 7.6, containing 0.001% Triton X-100, and 10% DMSO. The cleavage of the thiobenzyl ester was detected with 250 μM […] (5′,5′-dithiobis-2-nitrobenzoic acid).
The concentration of active site of HNE was determined by titration with N-benzyloxycarbonyl-Ala-Ala-Pro-azaAla p-nitrophenyl ester or an alternative method. For the alternative method, the concentration of the active center of a HNE solution was first titrated with the above p-nitrophenyl ester, this HNE solution was then used to measure the active center concentration of an eglin c solution. Aliquots of the eglin c solution were stored at −70° C. and employed as a second standard to assay the activity of any newly prepared HNE solutions. No change in the activity of eglin c could be detected over a 3 year time interval as long as the solution was stored at −70° C. An important factor which influences the HNE assay is the method of dissolution of lyophilized enyme: if HNE is obtained in the lyophilized state, the protease solution should be dissolved, aliquoted, and stored at −20° C. for at least 48 hours prior to assay, so that the dried protein can be completely hydrated. Freshly dissolved enzyme which has not been stored for 48 hours may have proteolytic activity which is 10%-20% less that of stored enzyme.
Consequently, it is not always easy to achieve conditions in which the initial concentration of free inhibitor, [I]o, is much larger than the initial concentration of free enzyme, [E]o, i.e. the condition of [I]o≧10 [E]o is not easily fulfilled. […]
can only be employed when the condition of [I]o≧10 [E]o is fulfilled. In those cases in which the condition of [I]o≧10 [E]o is not met, the experimental data is analyzed using the Henderson equations according to the classic procedure (Henderson, P. J. F. Biochem. J. 127: 321, 1972) or with equations derived for slow-binding inhibition (Ying, Q-L. et al, Biochemistry 33: 5445, 1994). […]

Series [3] has as its target T2, PR3 (human neutrophil proteinase 3) (Homo sapiens, UniProt P24158).
T2 construct: Enzymes PR3 and HNE (HLE) were purchased from Athens Research and Technology (Athens, Ga.) or Elastin Products (Owensville, Mich.); purchased Athens Research and Technology (Athens, Ga.) or Elastin Products (Owensville, Mich.)
T2 sequence (P24158 28-248): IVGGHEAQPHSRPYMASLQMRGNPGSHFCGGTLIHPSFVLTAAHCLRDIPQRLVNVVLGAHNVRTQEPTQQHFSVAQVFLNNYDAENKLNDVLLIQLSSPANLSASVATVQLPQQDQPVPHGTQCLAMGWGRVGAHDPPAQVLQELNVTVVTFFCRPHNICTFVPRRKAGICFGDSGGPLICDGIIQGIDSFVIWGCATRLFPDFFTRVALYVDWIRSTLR
The series can be described thus: PR3 enzyme inhibition, Ki determination. The series is classed as biochemical. Conditions: substrate Boc-Ala-Pro-Nva-4-chloro-SBzl, pH 7.6. How it is done:
as §1, §2

The nature of series [4]: Solubility in 0.1 M PBS by LC-MS. The class given is physicochemical. Particulars: aqueous buffer, kinetic from dmso stock; 0.1 M PBS pH 7.4, 2% DMSO, 2 hours at 37° C. How it is done:
Solubility of test compounds was measured by adding small volumes of DMSO stock solutions (final concentration 2% DMSO) to 0.1 M PBS (pH 7.4) and incubating for 2 hours at 37° C. Subsequently, the samples were filtered and the concentration of test compounds was determined by LC-MS.

The nature of series [5]: Plasma stability in dog plasma. The series is classed as in vitro ADME. Conditions: 37° C., 2 hours, read-out: Plasma Stability (t1/2). As for the experimental part: Plasma stability of test compounds was accessed by incubating with dog plasma (37° C. at 1 μM) for 2 hours. Aliquots were taken at pre-defined times and the disappearance of parent compound was monitored by LC-MS.

With `CC(C)[C@H](NC(=O)[C@@H]1CCCN1C(=O)[C@@H](NC(=O)CCCCCNC(=O)c1ccccn1)C(C)C)C(=O)c1nnc(-c2ccccc2)o1` [AI-158], in series [1], the “Plasma Protein Binding (% free)” value turned out to be 8.0 % free and the “Protein binding in dog plasma (% bound)” value stood at 92 % bound. Further, in series [2], the Ki was 0.22 nM. For the same compound, in series [3], the inhibition constant (Ki) is 8.4 nM. Also, in series [4], the concentration in solution (solubility at 2 h) was 69 µM (≈ 45.5 µg/mL). Moreover, the half-life at 1 μM in series [5] is more than 1.67 h.

As to `CC(C)[C@H](NC(=O)CCCCCNC(=O)c1ccccn1)C(=O)N1CCC[C@H]1C(=O)N[C@H](C(=O)C(F)(F)F)C(C)C` [AI-167], in series [1], the “Plasma Protein Binding (% free)” value is listed as 19.0 % free and the “Protein binding in dog plasma (% bound)” value is 81 % bound. For the same compound, in series [4], the solubility at 2 h is 164 µM (≈ 95.7 µg/mL). Also, the half-life at 1 μM in series [5] is more than 1.67 h.

In the case of `CC(C)[C@H](NC(=O)[C@@H]1CCCN1C(=O)[C@@H](NC(=O)CCCCCNC(=O)c1ccccn1)C(C)C)C(=O)c1nnc(C(C)(C)C)o1` [AI-168], in series [1], the “Plasma Protein Binding (% free)” value was found to be 17.0 % free and the “Protein binding in dog plasma (% bound)” value was determined as 83 % bound. The Ki in series [2] came out at 0.2 nM. The same compound returned a Ki in series [3] of 3.9 nM. Further, in series [4], the solubility at 2 h amounted to 179 µM (≈ 115 µg/mL). In series [5], the half-life at 1 μM is more than 1.67 h.

As for `Cc1cccc(Cc2nnc(C(=O)[C@@H](NC(=O)[C@@H]3CCCN3C(=O)[C@@H](NC(=O)OCc3ccccc3)C(C)C)C(C)C)o2)c1` [CE-2072, reference compound], in series [1], the “Plasma Protein Binding (% free)” value is listed as 1.0 % free. Further, the inhibition constant Ki is 0.24 nM in series [2] and 24 nM in series [3]. In addition, the “Ki for HLE (in words)” value in series [2] (tight binding inhibitor of HLE) is given as “subnanomolar range”. Besides, the solubility at 2 h in series [4] is less than 10 µM. In addition, the half-life at 1 μM in series [5] is more than 1.67 h.
